Two molecules from paper PMC12648627, “Structural and functional characterization of a metagenomically derived γ‐type carbonic anhydrase and its engineering into a hyperthermostable esterase” (Protein Science : A Publication of the Protein Society, 2025) can be followed below.

Experiment [1] has as its target T1, γ-CaCAmut (Caloramator australicus, UniProt G0V3M6, V46E/T67E/G68E/Y159N, form not given).
T1 construct: gene CAAU_0066
The experiment can be described thus: spectrophotometric p-nitrophenol release at […] nm. It is filed as biochemical. Conditions: 0.1 M KH2PO4, pH 8.0, 25°C; 0.4-3.5 mM p-NPA; esterase activity.

Experiment [2] concerns the target T1, γ-CaCAmut. Conditions: pNPA as substrate, 25°C; 1 mM inhibitor.

T1 sequence (G0V3M6 1-167 G68E/T67E/V46E/Y159N limits assumed): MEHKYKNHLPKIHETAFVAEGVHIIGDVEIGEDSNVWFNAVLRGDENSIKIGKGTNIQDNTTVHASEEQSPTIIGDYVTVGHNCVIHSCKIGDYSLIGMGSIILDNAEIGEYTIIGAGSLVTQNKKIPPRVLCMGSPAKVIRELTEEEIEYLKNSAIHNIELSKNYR

`CC(=O)Oc1ccc([N+](=O)[O-])cc1` [p-nitrophenyl acetate]: the Km at γ-CaCAmut [1] turned out to be 960 ± 50 µM. `Nc1ccc(S(N)(=O)=O)cc1` [sulfanilamide]: on γ-CaCAmut [2], the “% inhibition at 1 mM” value is “Inhibition of γ‐CaCAmut by three common diagnostic CA inhibitors (sulfanilamide, azide, and EDTA)”.
